Results reported in patent US20240336566A1, “CRYSTALLINE FORMS OF A COMPOUND FOR THE TARGETED DEGRADATION OF THE ANDROGEN RECEPTOR” (Arvinas Operations, Inc., priority 2023, published 2024).

Assays:
Type in all cases: physicochemical
[1] = Co-crystal screen: XRPD post temperature cycling and post storage at 40° C./75% RH;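 as to XRPD results, primary co-crystal screen post temperature cycling: value is the Compound A free base XRPD pattern number and 9 means a potential new one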; details: for XRPD results, primary co-crystal screen post storage at 40° C./75% RH / XRPD results, primary co-crystal screen post temperature cycling: Compound A + 1.05 eq. co-former (= label); for XRPD form post storage at 40° C./75% RH: ca. 24 or ca. 30 hours
[2] = Thermodynamic solubility determination in buffers (HPLC); details: 25° C.
Source text: No clear solubility advantage of the salts was noted over Compound A free base.

[3] = Primary salt screen: XRPD post temperature cycling/evaporation, post drying and post storage at 40° C./75% RH; details: post drying and 40° C./75% RH
Description: • 30 mg samples of Compound A were weighed out into 2 mL screw cap sample vials for 96 experiments. To these, 200 μL of the appropriate solvent system was added to dissolve the material or form a slurry. See Table 16 for the solvent systems selected for the primary salt screen.
• 1.05 eq. of solid counterions were weighed into six separate vials each and 1 molar stock solutions were prepared for liquid counterions in 5 mL of THF. See Table 17 for selected counterions and mass/volume needed for 1.05 eq. additions. • 100 μL of the appropriate solvent was added to the solid counterions.
The solution/slurry of counterion was added to the solution/slurry of the free base material.
• The samples were placed in an incubator shaker to temperature cycle between ambient and 40° C. over 4 hour cycles. • After ca. 72 hours of temperature cycling, observations were noted, see Table 19.
• Where slurries were obtained, the solids were isolated via centrifugation. Solids and gels were analyzed by XRPD.
Any samples that were clear solutions after temperature cycling were left to evaporate at ambient conditions. See Table 20 for observations made after evaporation. Solids obtained through evaporation were analyzed by XRPD.
• The samples obtained from temperature cycling were dried under vacuum at 40° C. for ca. 20 hours while the samples obtained from evaporation were dried under vacuum at 40° C. for ca. 4 hours. […]

[4] = Buffer pH 1.2, cf concentration of free base, listed as Compound A Phosphate
[5] = Buffer pH 3.0, LOQ 0.00025 mg/mL
[6] = Buffer pH 4.0, LOQ 0.00025 mg/mL

Structure (SMILES) | XRPD results, primary co-crystal screen post storage at 40° C./75% RH ([1]; DCM:Methanol (50:50 % v/v)) | XRPD results, primary co-crystal screen post temperature cycling ([1]; DCM:Methanol (50:50 % v/v)) | XRPD results, primary co-crystal screen post storage at 40° C./75% RH ([1]; THF) | XRPD results, primary co-crystal screen post temperature cycling ([1]; THF) | XRPD results, primary co-crystal screen post storage at 40° C./75% RH ([1]; 1,4-Dioxane) | XRPD results, primary co-crystal screen post temperature cycling ([1]; 1,4-Dioxane) | also measured
COc1cc(O[C@H]2C(C)(C)[C@H](NC(=O)c3ccc(N4CCC(CN5CCN(c6ccc(C(=O)N[C@H]7CCC(=O)NC7=O)c(F)c6)CC5)CC4)cc3)C2(C)C)ccc1C#N [free base Pattern 9] | – | – | – | – | – | – | XRPD form post storage at 40° C./75% RH [1]: converts to Pattern 4; XRPD form post storage at 40° C./75% RH ([1]; listed as Pattern 9): converted to free base Pattern 4
N[C@@H](Cc1ccccc1)C(=O)O [L-Phenylalanine] | – | – | – | – | 4 | 9 | –
O=C(O)[C@@H]1CCCN1 [L-Proline] | 2 | 2 | 1 | 1 | 4 | 9 | –
NC(=O)c1cccnc1 [Nicotinamide] | 2 | 2 | 1 | 1 | 4 | 4 | XRPD results, primary co-crystal screen post storage at 40° C./75% RH ([1]; DMSO:Water (50:50 % v/v)): 2; XRPD results, primary co-crystal screen post temperature cycling ([1]; DMSO:Water (50:50 % v/v)): 2
COc1cc(O[C@H]2C(C)(C)[C@H](NC(=O)c3ccc(N4CCC(CN5CCN(c6ccc(C(=O)N[C@H]7CCC(=O)NC7=O)c(F)c6)CC5)CC4)cc3)C2(C)C)ccc1C#N [phosphate Pattern 1] | – | – | – | – | – | – | 0 Hr Solubility [2, 4]: 5900 ng/mL; 4 Hr Solubility [2, 4]: 29100 ng/mL; 24 Hr Solubility [2, 4]: 30600 ng/mL; 0 Hr Solubility [2, 5]: <250 ng/mL; 4 Hr Solubility [2, 5]: <250 ng/mL; 24 Hr Solubility [2, 5]: <250 ng/mL; 0 Hr Solubility [2, 6]: <250 ng/mL; 4 Hr Solubility [2, 6]: <250 ng/mL; 24 Hr Solubility ([2]; Buffer pH 4.0, LOQ 0.00025 mg/mL, listed as Compound A Phosphate): <250 ng/mL; thermodynamic solubility ([2]; pH 1.2, after 24 hours, as concentration of Compound A free base): 0.0306 mg/mL; assessment of salt form in the primary salt screen [3]: stable hydrates

The next lines start with results.

XRPD results, primary co-crystal screen post storage at 40° C./75% RH ([1]; DCM:Methanol (50:50 % v/v)) | XRPD results, primary co-crystal screen post temperature cycling ([1]; DCM:Methanol (50:50 % v/v)) | XRPD results, primary co-crystal screen post storage at 40° C./75% RH ([1]; THF) | XRPD results, primary co-crystal screen post temperature cycling ([1]; THF) | XRPD results, primary co-crystal screen post storage at 40° C./75% RH ([1]; 1,4-Dioxane) | XRPD results, primary co-crystal screen post temperature cycling ([1]; 1,4-Dioxane) | Structure (SMILES) | also measured
1 | 1 | 1 | 1 | – | – | COC(=O)c1ccc(O)cc1 [Methylparaben] | –
2 | 2 | – | – | 4 | 9 | N[C@@H](Cc1ccc(O)cc1)C(=O)O [L-Tyrosine] | –
